Experiment: Log P by HPLC on reversed phase columns (EEC directive 79/831 Annex V.A8)
Type: physicochemical
Details: [a] LC-UV, acidic range, 0.1% formic acid in water and acetonitrile as eluent
Method: Measurement of Log P values was performed according to EEC directive 79/831 Annex V.A8 by HPLC (High Performance Liquid Chromatography) on reversed phase columns with the following methods: [a] Log P value is determined by measurement of LC-UV, in an acidic range, with 0.1% formic acid in water and acetonitrile as eluent (linear gradient from 10% acetonitrile to 95% acetonitrile). [b] Log P value is determined by measurement of LC-UV, in a neutral range, with 0.001 molar ammonium acetate solution in water and acetonitrile as eluent (linear gradient from 10% acetonitrile to 95% acetonitrile). Calibration was done with straight-chain alkan2-ones (with 3 to 16 carbon atoms) with known Log P values (measurement of Log P values using retention times with linear interpolation between successive alkanones). Lambda-max-values were determined using UV-spectra from 200 nm to 400 nm and the peak values of the chromatographic signals.

Row | LogP | Compound
1 | 3.11^[a] | O=C(Nc1ccccc1Oc1cc(F)cc(F)c1)c1cccnc1C(F)F [Example I-12]
2 | 3.09^[a] | O=C(Nc1ccccc1Oc1ccc(F)c(F)c1)c1cccnc1C(F)F [Example I-16]
3 | 2.86^[a] | CON=Cc1ccc(-c2ccccc2NC(=O)c2cccnc2C(F)F)cc1 [Example I-32]
4 | 2.97^[a] | CON=Cc1c(F)cc(-c2cccc(F)c2NC(=O)c2cccnc2C(F)F)cc1F [Example I-33]
5 | 2.66^[a] | O=C(Nc1ccccc1-c1ccc(F)cc1)c1cccnc1C(F)F [Example I-34]
6 | 3.06^[a] | O=C(Nc1ccccc1-c1ccc(Cl)c(F)c1)c1cccnc1C(F)F [Example I-35]
7 | 2.71^[a] | N#Cc1c(F)cc(-c2ccccc2NC(=O)c2cccnc2C(F)F)cc1F [Example I-36]
8 | 2.80^[a] | O=C(Nc1ccccc1-c1cc(F)cc(F)c1)c1cccnc1C(F)F [Example I-38]
9 | 2.92^[a] | O=C(Nc1ccccc1-c1ccc(Cl)cc1)c1cccnc1C(F)F [Example I-40]
10 | 3.23^[a] | CCON=Cc1ccc(-c2ccccc2NC(=O)c2cccnc2C(F)F)cc1 [Example I-41]
11 | 2.78^[a] | O=C(Nc1ccccc1-c1ccc(F)c(F)c1)c1cccnc1C(F)F [Example I-42]
12 | 3.25^[a] | O=C(Nc1ccccc1-c1ccc(C(F)(F)F)c(F)c1)c1cccnc1C(F)F [Example I-43]
13 | 2.66^[a] | O=C(Nc1ccccc1-c1ccc(F)cc1F)c1cccnc1C(F)F [Example I-45]
14 | 2.92^[a] | O=C(Nc1ccccc1-c1cc(F)c(F)c(F)c1)c1cccnc1C(F)F [Example I-48]
15 | 3.17^[a] | CON=Cc1c(F)cc(-c2ccccc2NC(=O)c2cccnc2C(F)F)cc1F [Example I-49]
16 | 3.46^[a] | CCON=Cc1c(F)cc(-c2ccccc2NC(=O)c2cccnc2C(F)F)cc1F [Example I-50]
17 | 2.96^[a] | O=C(Nc1ccccc1-c1cccc(Cl)c1)c1cccnc1C(F)F [Example I-52]

Row | LogP | Compound
18 | 3.48^[a] | O=C(Nc1ccccc1-c1cc(Cl)cc(Cl)c1)c1cccnc1C(F)F [Example I-53]
19 | 3.35^[a] | O=C(Nc1ccccc1-c1ccc(Cl)c(Cl)c1)c1cccnc1C(F)F [Example I-54]
20 | 3.16^[a] | COC(=N)c1c(F)cc(-c2cc(F)ccc2NC(=O)c2cccnc2C(F)F)cc1F [Example I-55]
21 | 3.29^[a] | CCOc1c(F)cc(-c2ccccc2NC(=O)c2cccnc2C(F)F)cc1F [Example I-57]
22 | 3.61^[a] | CCCOc1c(F)cc(-c2ccccc2NC(=O)c2cccnc2C(F)F)cc1F [Example I-58]
23 | 3.99^[a] | CCCCOc1c(F)cc(-c2ccccc2NC(=O)c2cccnc2C(F)F)cc1F [Example I-59]
24 | 3.35^[a] | CCON=Cc1c(F)cc(-c2cccc(F)c2NC(=O)c2cccnc2C(F)F)cc1F [Example I-60]
25 | 3.55^[a] | CCON=Cc1c(F)cc(-c2cc(F)ccc2NC(=O)c2cccnc2C(F)F)cc1F [Example I-65]
26 | 3.04^[a] | O=C(Nc1ccccc1-c1ccc(F)c(Cl)c1)c1cccnc1C(F)F [Example I-66]
27 | 3.70^[a] | CCON=Cc1ccc(-c2ccccc2NC(=S)c2cccnc2C(F)F)cc1 [Example I-67]
28 | 4.11^[a] | CCON=Cc1c(F)cc(-c2cc(F)ccc2NC(=S)c2cccnc2C(F)F)cc1F [Example I-70]
29 | 3.19^[a] | N#Cc1c(F)cc(-c2ccccc2NC(=S)c2cccnc2C(F)F)cc1F [Example I-71]
30 | 3.99^[a] | CCON=Cc1c(F)cc(-c2cccc(F)c2NC(=S)c2cccnc2C(F)F)cc1F [Example I-72]
31 | 3.27^[a] | Fc1ccc(-c2ccccc2NC(=S)c2cccnc2C(F)F)cc1F [Example I-73]
32 | 3.92^[a] | CCON=Cc1c(F)cc(-c2ccccc2NC(=S)c2cccnc2C(F)F)cc1F [Example I-75]
33 | 3.55^[a] | CON=Cc1c(F)cc(-c2ccccc2NC(=S)c2cccnc2C(F)F)cc1F [Example I-76]

The next lines start with the compound.

Row | Compound | LogP
34 | Cc1ccccc1Oc1ccccc1NC(=O)c1cccnc1C(F)F [Example I-02] | 3.27^[a]
35 | O=C(Nc1ccccc1Oc1ccc(Cl)cc1)c1cccnc1C(F)F [Example I-03] | 3.33^[a]
36 | O=C(Nc1ccccc1Oc1cc(F)cc(C(F)(F)F)c1)c1cccnc1C(F)F [Example I-04] | 3.57^[a]
37 | COc1cccc(Oc2ccccc2NC(=O)c2cccnc2C(F)F)c1 [Example I-05] | 2.92^[a]
38 | O=C(Nc1ccccc1Oc1ccc(C(F)(F)F)cc1)c1cccnc1C(F)F [Example I-07] | 3.46^[a]
39 | O=C(Nc1ccccc1Oc1cccc(F)c1F)c1cccnc1C(F)F [Example I-08] | 2.98^[a]
40 | O=C(Nc1cccc(Cl)c1Sc1ccccc1)c1cccnc1C(F)F [Example I-09] | 3.59^[a]
41 | O=C(Nc1cccc(Cl)c1Oc1ccc(Cl)cc1)c1cccnc1C(F)F [Example I-10] | 3.59^[a]
42 | O=C(Nc1ccccc1Sc1ccccc1)c1cccnc1C(F)F [Example I-11] | 3.21^[a]
43 | COc1ccc(Oc2ccccc2NC(=O)c2cccnc2C(F)F)cc1 [Example I-13] | 2.90^[a]
44 | O=C(Nc1ccccc1Sc1ccc(Cl)cc1)c1cccnc1C(F)F [Example I-14] | 3.57^[a]
45 | O=C(Nc1ccccc1Oc1ccccc1F)c1cccnc1C(F)F [Example I-15] | 2.88^[a]
46 | O=C(Nc1ccccc1Oc1ccc(Cl)cc1Cl)c1cccnc1C(F)F [Example I-17] | 3.65^[a]
47 | O=C(Nc1ccccc1Oc1cccc(C(F)(F)F)c1)c1cccnc1C(F)F [Example I-18] | 3.44^[a]
48 | Cc1cccc(Oc2ccccc2NC(=O)c2cccnc2C(F)F)c1 [Example I-19] | 3.23^[a]
49 | O=C(Nc1ccccc1Oc1ccccc1)c1cccnc1C(F)F [Example I-20] | 2.90^[a]
50 | COc1ccccc1Oc1ccccc1NC(=O)c1cccnc1C(F)F [Example I-21] | 2.88^[a]
51 | O=C(Nc1cccc(Cl)c1Oc1ccccc1)c1cccnc1C(F)F [Example I-22] | 3.15^[a]
52 | O=C(Nc1ccccc1S(=O)(=O)c1ccccc1)c1cccnc1C(F)F [Example I-23] | 2.56^[a]

Row | Compound | LogP
53 | O=C(Nc1cc(C(F)(F)F)ccc1Oc1ccccc1)c1cccnc1C(F)F [Example I-24] | 3.63^[a]
54 | O=C(Nc1ccccc1Oc1cc(Cl)cc(Cl)c1)c1cccnc1C(F)F [Example I-25] | 3.81^[a]
55 | O=C(Nc1ccccc1Oc1ccccc1Cl)c1cccnc1C(F)F [Example I-26] | 3.11^[a]
56 | O=C(Nc1ccccc1Oc1cccc(F)c1)c1cccnc1C(F)F [Example I-27] | 2.96^[a]
57 | O=C(Nc1ccccc1Oc1ccc(F)cc1)c1cccnc1C(F)F [Example I-28] | 2.96^[a]
58 | N#Cc1ccc(Oc2ccccc2NC(=O)c2cccnc2C(F)F)cc1 [Example I-29] | 2.51^[a]
59 | O=C(Nc1ccccc1Oc1ccc(Br)cc1)c1cccnc1C(F)F [Example I-30] | 3.39^[a]
60 | O=C(Nc1ccc(F)cc1-c1ccc(Cl)c(Cl)c1)c1cccnc1C(F)F [Example I-37] | 3.44^[a]
61 | O=C(Nc1ccccc1-c1cccc(C(F)(F)F)c1)c1cccnc1C(F)F [Example I-39] | 3.15^[a]
62 | O=C(Nc1ccccc1-c1ccccc1C(F)(F)F)c1cccnc1C(F)F [Example I-44] | 2.99
63 | O=C(Nc1ccc(F)cc1-c1ccc(F)cc1)c1cccnc1C(F)F [Example I-47] | 2.73^[a]
64 | O=C(Nc1ccccc1-c1ccccc1Cl)c1cccnc1C(F)F [Example I-51] | 2.74
65 | CSc1ccc(-c2ccccc2NC(=O)c2cccnc2C(F)F)cc1 [Example I-56] | 2.94^[a]
66 | O=C(Nc1ccccc1-c1ccccc1)c1cccnc1C(F)F [Example I-61] | 2.55^[a]
67 | CC(C)(C)C#Cc1ccc(-c2ccccc2NC(=O)c2cccnc2C(F)F)cc1 [Example I-62] | 4.29^[a]
68 | O=C(Nc1ccccc1-c1ccc(C(F)(F)F)c(Cl)c1)c1cccnc1C(F)F [Example I-63] | 3.50^[a]
69 | COC(=N)c1c(F)cc(-c2cc(F)ccc2NC(=S)c2cccnc2C(F)F)cc1F [Example I-69] | 3.73^[a]
70 | COC(=N)c1c(F)cc(-c2cccc(F)c2NC(=S)c2cccnc2C(F)F)cc1F [Example I-74] | 3.60^[a]

Same assay, conditions: [b] LC-UV, neutral range, 0.001 molar ammonium acetate solution in water and acetonitrile as eluent

Row | LogP | Compound
71 | 2.93 | O=C(Nc1ccccc1-c1ccccc1C(F)(F)F)c1cccnc1C(F)F [Example I-44]
72 | 2.68 | O=C(Nc1ccccc1-c1ccccc1Cl)c1cccnc1C(F)F [Example I-51]

Same assay, conditions: reversed phase HPLC column; [a] LC-UV, acidic range, 0.1% formic acid in water and acetonitrile as eluent

Row | chromatographic logP | Compound
73 | 3.27 | Cc1ccc(Oc2ccccc2NC(=O)c2cccnc2C(F)F)cc1 [Example I-01, 2-(difluoromethyl)-N-[2-(4-methylphenoxy)phenyl]nicotinamide]
74 | 3.94 | FC(F)c1ncccc1C(=S)Nc1ccccc1-c1ccc(C(F)(F)F)c(Cl)c1 [Example I-68, N-[3′-chloro-4′-(trifluoromethyl)biphenyl-2-yl]-2-(difluoromethyl)pyridine-3-carbothioamide]
